Data set [1] addresses T1, Dual specificity protein kinase CLK1 (Homo sapiens, UniProt P49759). Description: Inhibition of CLK mediated SF3B1 activation in human SK-MEL-2 cells assessed as MDM2-pre mRNA exon skipping at 10 uM after 4 hrs by luciferase reporter gene assay relative to control. Type of data set: cell-based. Set-up: Activity: scale not given: the % may be the effect or the level left.
Target sequence in this assay (P49759 whole entry, looked up): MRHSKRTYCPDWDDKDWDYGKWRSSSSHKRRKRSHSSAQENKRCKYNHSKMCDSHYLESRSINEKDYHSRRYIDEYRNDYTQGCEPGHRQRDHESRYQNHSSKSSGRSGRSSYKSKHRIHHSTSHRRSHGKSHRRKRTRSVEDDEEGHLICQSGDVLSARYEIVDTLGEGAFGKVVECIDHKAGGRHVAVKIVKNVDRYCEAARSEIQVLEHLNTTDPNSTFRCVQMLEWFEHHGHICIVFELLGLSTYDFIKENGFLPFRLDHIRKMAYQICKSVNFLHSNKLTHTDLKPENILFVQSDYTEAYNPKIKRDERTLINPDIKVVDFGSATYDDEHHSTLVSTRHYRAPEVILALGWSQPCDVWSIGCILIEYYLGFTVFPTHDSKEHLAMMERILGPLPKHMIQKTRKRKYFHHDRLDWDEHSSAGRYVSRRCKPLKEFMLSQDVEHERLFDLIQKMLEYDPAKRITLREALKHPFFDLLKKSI

The target of data set [2] is T1, Dual specificity protein kinase CLK1. The data set can be described thus: Inhibition of CLK mediated SF3B1 activation in human SK-MEL-2 cells assessed as MDM2-pre mRNA exon skipping after 4 hrs by luciferase reporter gene assay relative to control. Type of data set: cell-based.
Target sequence in this assay (P49759 whole entry): as the sequence (P49759 whole entry, looked up) above
Data set [3] has the same target. Description: Inhibition of CLK mediated SF3B1 activation in human HeLa cells assessed as MDM2-pre mRNA exon skipping by luciferase reporter gene assay. It is filed as cell-based.
Target sequence in this assay (P49759 whole entry): as the sequence (P49759 whole entry, looked up) above
For data set [4] the target is unchanged. Description: Inhibition of human CLK1 using substrate ERMRPRKRQGSVRRRV in presence of [gamma-33P]ATP after 40 mins by scintillation counter method.
Target sequence in this assay (P49759 whole entry): as the sequence (P49759 whole entry, looked up) above
For data set [5], the target named is Dual specificity protein kinase CLK3 (Homo sapiens, UniProt P49761). The data set can be described thus: Inhibition of human CLK3 using ERMRPRKRQGSVRRRV as substrate in presence of [gamma-33P]ATP after 40 mins by scintillation counter method.
Sequence of Dual specificity protein kinase CLK3 (P49761 whole entry): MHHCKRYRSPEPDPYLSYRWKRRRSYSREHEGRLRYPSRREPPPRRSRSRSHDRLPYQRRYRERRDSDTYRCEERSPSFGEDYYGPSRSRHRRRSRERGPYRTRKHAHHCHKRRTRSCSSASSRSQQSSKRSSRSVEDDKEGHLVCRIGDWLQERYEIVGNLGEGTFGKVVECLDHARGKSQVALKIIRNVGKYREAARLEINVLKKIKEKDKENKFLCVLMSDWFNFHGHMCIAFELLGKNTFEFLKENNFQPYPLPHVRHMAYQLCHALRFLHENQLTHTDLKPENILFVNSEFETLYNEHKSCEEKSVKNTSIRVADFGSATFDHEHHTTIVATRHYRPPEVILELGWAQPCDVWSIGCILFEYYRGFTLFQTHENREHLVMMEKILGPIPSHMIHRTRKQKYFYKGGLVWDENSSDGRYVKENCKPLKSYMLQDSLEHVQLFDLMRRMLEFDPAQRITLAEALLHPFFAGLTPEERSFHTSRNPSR
In data set [6] the target is Cyclin-dependent kinase 1/cyclin B1 (Homo sapiens, UniProt P06493). The data set can be described thus: Inhibition of human CDK1/cyclinB using Histone H1 as substrate in presence of [gamma-33P]ATP after 40 mins by scintillation counter method. It is filed as protein-complex assay.
Sequence of Cyclin-dependent kinase 1/cyclin B1 (P06493 whole entry): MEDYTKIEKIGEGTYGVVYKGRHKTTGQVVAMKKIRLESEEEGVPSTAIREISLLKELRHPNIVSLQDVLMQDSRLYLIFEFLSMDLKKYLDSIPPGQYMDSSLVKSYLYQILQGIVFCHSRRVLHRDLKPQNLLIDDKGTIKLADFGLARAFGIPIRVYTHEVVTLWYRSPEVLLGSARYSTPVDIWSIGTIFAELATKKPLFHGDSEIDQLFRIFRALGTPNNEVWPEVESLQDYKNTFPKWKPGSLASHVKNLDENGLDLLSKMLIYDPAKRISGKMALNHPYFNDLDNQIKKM
Sequence of Cyclin-dependent kinase 1/cyclin B1 (P14635 whole entry, further chain): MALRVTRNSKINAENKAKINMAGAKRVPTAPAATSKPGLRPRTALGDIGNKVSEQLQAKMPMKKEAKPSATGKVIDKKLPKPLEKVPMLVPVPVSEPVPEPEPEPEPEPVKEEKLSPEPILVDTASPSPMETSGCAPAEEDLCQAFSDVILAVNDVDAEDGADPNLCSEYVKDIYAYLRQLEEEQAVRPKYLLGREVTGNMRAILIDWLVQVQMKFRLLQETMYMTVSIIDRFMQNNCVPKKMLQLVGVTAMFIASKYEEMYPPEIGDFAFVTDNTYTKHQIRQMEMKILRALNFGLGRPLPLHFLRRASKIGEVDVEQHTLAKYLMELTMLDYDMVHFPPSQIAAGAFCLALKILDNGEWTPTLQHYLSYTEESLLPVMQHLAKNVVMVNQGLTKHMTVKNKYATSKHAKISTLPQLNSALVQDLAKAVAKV
Data set [7] addresses CDK6/cyclin D3 (Homo sapiens, UniProt P30281+Q00534). Description: (§1) Inhibition of human CDK6/cyclinD3 using Histone H1 as substrate in presence of [gamma-33P]ATP after 40 mins by scintillation counter method. Type of data set: protein-complex assay.
Data set [8] concerns the target CDK4/Cyclin D3 (Homo sapiens, UniProt P11802+P30281). Description: (§2) Inhibition of human CDK4/cyclinD3 using Histone H1 as substrate in presence of [gamma-33P]ATP after 40 mins by scintillation counter method. It is filed as protein-complex assay.
Data set [9] can be described thus: Solubility of the compound. It is filed as physicochemical.
Data set [10] deals with T1, Dual specificity protein kinase CLK1. The data set can be described thus: Inhibition of CLK mediated SF3B1 activation in human Rh-18 cells assessed as MDM2-pre mRNA exon skipping at 10 uM after 8 hrs by RT-PCR method. It is filed as cell-based.
Target sequence in this assay (P49759 whole entry, looked up): as the sequence (P49759 whole entry, looked up) above
In data set [11] the target is Dual specificity protein kinase CLK4 (Homo sapiens, UniProt Q9HAZ1). The data set can be described thus: Inhibition of human CLK4 using YRRAAVPPSPSLSRHSSPHQS(p)EDEEE as substrate in presence of [gamma-33P]ATP after 40 mins by scintillation counter method.
Sequence of Dual specificity protein kinase CLK4 (Q9HAZ1 whole entry): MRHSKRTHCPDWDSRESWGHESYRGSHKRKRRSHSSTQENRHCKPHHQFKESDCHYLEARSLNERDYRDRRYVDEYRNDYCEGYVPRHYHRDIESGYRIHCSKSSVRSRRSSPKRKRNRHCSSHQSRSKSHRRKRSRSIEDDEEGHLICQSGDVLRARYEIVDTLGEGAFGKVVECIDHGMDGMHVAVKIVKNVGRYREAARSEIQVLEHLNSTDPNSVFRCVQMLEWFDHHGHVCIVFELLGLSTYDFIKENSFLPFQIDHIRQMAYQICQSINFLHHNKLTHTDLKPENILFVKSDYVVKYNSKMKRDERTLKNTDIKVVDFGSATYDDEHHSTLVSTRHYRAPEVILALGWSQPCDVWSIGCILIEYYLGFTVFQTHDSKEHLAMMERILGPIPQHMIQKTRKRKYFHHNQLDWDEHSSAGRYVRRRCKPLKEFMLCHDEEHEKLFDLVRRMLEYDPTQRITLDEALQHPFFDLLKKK
Data set [12] concerns the target Dual specificity protein kinase CLK2 (Homo sapiens, UniProt P49760). The data set can be described thus: Inhibition of human CLK2 using YRRAAVPPSPSLSRHSSPHQS(p)EDEEE as substrate in presence of [gamma-33P]ATP after 40 mins by scintillation counter method.
For data set [13], the target named is CDK6/cyclin D3 (Homo sapiens, UniProt Q00534). Described as §1. It is filed as protein-complex assay.
Sequence of CDK6/cyclin D3 (Homo sapiens, UniProt Q00534) (P30281 whole entry): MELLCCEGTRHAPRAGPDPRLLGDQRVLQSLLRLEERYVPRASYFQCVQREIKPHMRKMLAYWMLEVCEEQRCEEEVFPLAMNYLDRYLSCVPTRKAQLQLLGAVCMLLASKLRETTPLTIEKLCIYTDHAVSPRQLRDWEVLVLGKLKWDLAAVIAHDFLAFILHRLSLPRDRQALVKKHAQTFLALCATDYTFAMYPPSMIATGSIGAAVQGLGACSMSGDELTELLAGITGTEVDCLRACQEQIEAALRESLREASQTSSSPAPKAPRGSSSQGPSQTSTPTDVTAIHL
Sequence of CDK6/cyclin D3 (Homo sapiens, UniProt Q00534) (Q00534 whole entry): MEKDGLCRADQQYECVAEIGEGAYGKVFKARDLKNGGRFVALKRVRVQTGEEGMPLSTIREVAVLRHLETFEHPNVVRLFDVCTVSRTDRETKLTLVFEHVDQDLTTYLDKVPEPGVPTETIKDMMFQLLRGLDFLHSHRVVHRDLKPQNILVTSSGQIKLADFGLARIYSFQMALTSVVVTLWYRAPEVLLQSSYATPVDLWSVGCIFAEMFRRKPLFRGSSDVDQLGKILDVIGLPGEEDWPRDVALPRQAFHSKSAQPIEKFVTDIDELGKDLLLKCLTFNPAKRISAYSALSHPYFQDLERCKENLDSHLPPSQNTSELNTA
The target of data set [14] is CDK4/Cyclin D3 (Homo sapiens, UniProt P11802). Described as §2. It is filed as protein-complex assay.
Sequence of CDK4/Cyclin D3 (Homo sapiens, UniProt P11802) (P11802 whole entry): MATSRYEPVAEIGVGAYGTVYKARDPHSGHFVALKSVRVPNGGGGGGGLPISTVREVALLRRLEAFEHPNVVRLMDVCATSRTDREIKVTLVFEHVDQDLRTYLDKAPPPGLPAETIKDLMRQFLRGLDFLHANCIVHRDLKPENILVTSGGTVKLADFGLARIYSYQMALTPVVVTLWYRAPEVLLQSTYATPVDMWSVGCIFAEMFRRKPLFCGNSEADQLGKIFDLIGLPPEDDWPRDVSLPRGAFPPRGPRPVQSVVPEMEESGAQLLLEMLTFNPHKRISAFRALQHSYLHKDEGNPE
Sequence of CDK4/Cyclin D3 (Homo sapiens, UniProt P11802) (P30281 whole entry, further chain): as the sequence (P30281 whole entry) above

Calls of active or inactive are those of the source. No cut-off for these calls is given here. Some results are limits rather than exact numbers.

Sequence of Dual specificity protein kinase CLK2 (P49760 whole entry): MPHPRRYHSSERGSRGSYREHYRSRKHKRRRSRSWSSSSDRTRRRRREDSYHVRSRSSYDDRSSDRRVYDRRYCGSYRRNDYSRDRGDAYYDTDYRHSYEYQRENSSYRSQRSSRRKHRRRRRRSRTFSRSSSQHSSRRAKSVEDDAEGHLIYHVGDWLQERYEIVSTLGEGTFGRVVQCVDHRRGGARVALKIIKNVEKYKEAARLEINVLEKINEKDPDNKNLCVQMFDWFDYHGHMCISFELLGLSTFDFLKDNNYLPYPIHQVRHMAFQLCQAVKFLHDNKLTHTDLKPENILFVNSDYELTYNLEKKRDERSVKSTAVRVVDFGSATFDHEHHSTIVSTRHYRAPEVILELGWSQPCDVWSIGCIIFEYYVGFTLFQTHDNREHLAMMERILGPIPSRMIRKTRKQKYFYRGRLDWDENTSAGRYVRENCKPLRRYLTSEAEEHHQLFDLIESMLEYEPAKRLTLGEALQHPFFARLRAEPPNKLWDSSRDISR
Sequence of CDK4/Cyclin D3 (Homo sapiens, UniProt P11802+P30281) (P11802 whole entry): as the sequence (P11802 whole entry) above
Sequence of CDK4/Cyclin D3 (Homo sapiens, UniProt P11802+P30281) (P30281 whole entry): as the sequence (P30281 whole entry) above
Sequence of CDK6/cyclin D3 (Homo sapiens, UniProt P30281+Q00534) (P30281 whole entry): as above
Sequence of CDK6/cyclin D3 (Homo sapiens, UniProt P30281+Q00534) (Q00534 whole entry): as the sequence (Q00534 whole entry) above

Consider `C#CCCCCCCCCCCC(=O)CC(O)COC(C)=O` (centres undefined), for which the Activity in data set [1] turned out to be 14%.

Regarding `CC(C)n1cnc2c(Nc3cc(N)cc(Cl)c3)nc(N[C@H]3CCCC[C@@H]3N)nc21`, the EC50 in data set [2] (read-out: EC50) turned out to be 23.5 µM.

On to `CC(C)n1cnc2c(Nc3cc(N)cc(Cl)c3)nc(N[C@H]3CCCC[C@H]3N)nc21`, for which, in data set [2] (read-out: EC50), the EC50 was determined as 18.7 µM.

`COc1ccc2c(C)nc(Nc3nc(C)c(C)c(=O)[nH]3)nc2c1`: in data set [3], the 50% effective concentration (EC50) was determined as 20 µM.

Consider `CC(C)n1cnc2c(Nc3cc(N)cc(Cl)c3)nc(N[C@@H]3CCNC3)nc21`, for which, in data set [2] (read-out: EC50), the concentration giving a half-maximal response (EC50) stood at 26.4 µM.

As to `CC(C)n1ccc2c(Nc3cccc(Cl)c3)nc(N[C@H]3CCCC[C@H]3N)nc21` (racemic), the inhibition result in data set [1] is “inactive”. The half-inhibitory concentration (IC50) in data set [4] is greater than 1 µM.

Regarding `CCn1cnc2c(Nc3cccc(Cl)c3)nc(N[C@@H]3CCCC[C@@H]3NC(C)=O)nc21` (racemic), in data set [4], the IC50 is greater than 1 µM. For the same compound, the EC50 result in [2] is recorded as “Not Active”.

Regarding `CC(C)n1cnc2c(Nc3cc(N)cc(Cl)c3)nc(N[C@@H]3CCCC[C@H]3N)nc21`, the 50% effective concentration (EC50) in data set [2] (read-out: EC50) was determined as 9.7 µM.

For the compound `CC(C)n1cnc2c(Nc3cc(N)cc(Cl)c3)nc(N[C@@H]3CCCC[C@@H]3N)nc21`, the IC50 in data set [5] was greater than 1 µM; in data set [6] it was 0.532 µM; in data set [7] it was greater than 1 µM; in data set [8], greater than 1 µM. Moreover, in data set [2] (read-out: EC50), the half-maximal effective concentration (EC50) worked out at 3 µM.

In the case of `CCn1cnc2c(Nc3cccc(Cl)c3)nc(N[C@@H]3CCCC[C@H]3N)nc21`, the fold change (FC) in data set [1] is greater than 3. Also, the half-maximal effective concentration (EC50) in data set [2] (read-out: EC50) came to 7.8 µM.

Turning to `CC(=O)Nc1cc(Cl)cc(Nc2nc(N[C@@H]3CCCC[C@@H]3N)nc3c2ncn3C(C)C)c1` (racemic) [listing 1 of 2 here], the fold change (FC) in data set [1] is greater than 3.

In the case of `COCCNc1nc(Nc2cccc(Cl)c2)c2ncn(C(C)C)c2n1`, the solubility result in [9] was “Insoluble”. For the same compound, in [2], the EC50 result is “Not Active”.

For `CCN1/C(=C/C(C)=O)Sc2ccc(Cl)cc21`, in data set [1], the inhibition result is “inactive”.

As for `CC(C)[C@H](CO)Nc1nc(Nc2cc(N)cc(Cl)c2)c2ncn(C(C)C)c2n1` [AMINOPURVALANOL], in data set [10], the inhibition entry was “Active”. In addition, the concentration giving a half-maximal response (EC50) in data set [2] (read-out: EC50) came to 12 µM.

Regarding `COC(=O)c1c(/C(C#N)=C\N)c2ccc(Cl)c(Cl)c2n1C`, in data set [1], the inhibition entry was “Active”. The EC50 in data set [2] (read-out: EC50) stood at 8 µM.

Consider `CC(C)n1cnc2c(Nc3cc(N)cc(Cl)c3)nc(N[C@H]3CCCNC3)nc21`, for which the concentration giving a half-maximal response (EC50) in data set [2] (read-out: EC50) worked out at 12.9 µM.

`CC(C)n1cnc2c(Nc3cc(N)cc(Cl)c3)nc(N[C@@H]3CCCNC3)nc21`: the EC50 in data set [2] (read-out: EC50) turned out to be 14 µM.

In the case of `CCn1cnc2c(Nc3cccc(Cl)c3)nc(N[C@@H]3CCCC[C@@H]3N)nc21` (racemic), the inhibition result in data set [10] is “Active”. Further, in [1], the fold change (FC) is greater than 3. The IC50 in data set [11] was 0.104 µM; in data set [5], greater than 1 µM; in data set [12], 0.111 µM; in [4], 0.148 µM; in data set [6] it was 0.382 µM; in [13], greater than 1 µM. Further, the IC50 in data set [14] turned out to be 0.573 µM. In addition, the EC50 in data set [2] (read-out: EC50) was 4.2 µM.

As to `COc1ccc2c(c1)/C(=C/c1cnc[nH]1)C(=O)N2`, the Activity in [1] amounted to 53%.

Take `CC(C)n1cnc2c(Nc3cccc(Cl)c3)nc(N[C@H]3CCCC[C@H]3N)nc21`: the fold change (FC) in [1] was greater than 3. In addition, the EC50 in data set [2] (read-out: EC50) is 12.2 µM.

Take `CC1=Nc2ccc(Cl)cc2S(=O)(=O)N1`: the Activity in data set [1] was 11%.

Regarding `O=C(O)COc1ccc(Cl)cc1Cl`, the Activity in data set [1] was found to be 21%.

As for `CC(C)n1cnc2c(Nc3cc(N)cc(Cl)c3)nc(N[C@@H]3CCCC[C@@H]3N)nc21` (racemic), the IC50 is 0.054 µM in data set [11]; greater than 1 µM in data set [5]; 0.016 µM in data set [12]; 0.018 µM in data set [4]; 0.973 µM in data set [6]; greater than 1 µM in data set [13]. In addition, the concentration for half-maximal inhibition (IC50) in data set [14] is greater than 1 µM. Besides, in data set [2] (read-out: EC50), the EC50 was 6.5 µM.

Consider `CC(=O)Nc1cc(Cl)cc(Nc2nc(N[C@H]3CCCC[C@H]3N)nc3c2ncn3C(C)C)c1`, for which the EC50 in [2] (read-out: EC50) is 17.5 µM.

Consider `CCn1cnc2c(Nc3cccc(Cl)c3)nc(N[C@H]3CCCC[C@@H]3N)nc21`, for which the fold change (FC) in data set [1] was greater than 3. Also, the half-maximal effective concentration (EC50) in data set [2] (read-out: EC50) was determined as 22 µM.

`Clc1cccc(Nc2nnc(-c3ccccc3)c3ccccc23)c1`: the Activity in [1] is 11%.

Turning to `CC(=O)Oc1ccc(/C=C/c2cc(OC(C)=O)cc(OC(C)=O)c2)cc1`, the Activity in data set [1] was determined as 17%.

In the case of `CC(/C=C/[C@@H]1C[C@]2(CO2)CC(C)(C)O1)=C\C[C@H]1CC[C@@H](NC(=O)/C=C\[C@H](C)OC(=O)N(C)C)CC1`, the inhibition entry in data set [1] is “Active”.

`COc1ccc2c(C)nc(Nc3nc(C)c(C)c(O)n3)nc2c1`: the inhibition result in data set [1] was “inactive”.

Regarding `CC(C)n1cnc2c(Nc3cc(N)cc(Cl)c3)nc(N[C@H]3CCNC3)nc21`, in [2] (read-out: EC50), the EC50 came to 12 µM.

As to `CC(=O)Nc1cc(Cl)cc(Nc2nc(N[C@@H]3CCCC[C@@H]3N)nc3c2ncn3C(C)C)c1`, in data set [2] (read-out: EC50), the EC50 was 7.3 µM. For the same compound, the IC50 in data set [6] and in [13] was greater than 1 µM throughout.

Turning to `CC(=O)Nc1cc(Cl)cc(Nc2nc(N[C@@H]3CCCC[C@@H]3N)nc3c2ncn3C(C)C)c1` (racemic) [listing 2 of 2 here], the IC50 in [11] was 0.064 µM; in [12] it was 0.013 µM; in data set [4], 0.019 µM; in [14], 0.93 µM. In addition, the EC50 in data set [2] (read-out: EC50) is 8.1 µM.

Take `CNC(=O)O[C@@H](C)/C=C\C(=O)N[C@H]1CC[C@@H](C/C=C(C)/C=C/[C@@H]2C[C@]3(CO3)CC(C)(C)O2)CC1`: in data set [2] (read-out: EC50), the half-maximal effective concentration (EC50) stood at 0.8 µM.

Take `CC(C)n1cnc2c(Nc3cccc(Cl)c3)nc(N[C@@H]3CCCC[C@H]3N)nc21`: the fold change (FC) in data set [1] was greater than 3. Besides, in [2] (read-out: EC50), the EC50 was determined as 4.5 µM.

The values above are taken from ChEMBL document CHEMBL4002601, “A triple exon-skipping luciferase reporter assay identifies a new CLK inhibitor pharmacophore” (Bioorg Med Chem Lett, 2017).
